From the NIST ThermoML archive (doi:10.1021/je900194v)

Experiments:
[1] = xn = mol fraction of the nth substance listed; conditions: 101 kPa, Liquid; for viscosity: Capillary tube (Ostwald / Ubbelohde) method; for mass density: Vibrating tube method
[2] = 101 kPa, Liquid; for mass density: Vibrating tube method; for viscosity: Capillary tube (Ostwald / Ubbelohde) method

COC(=O)CCCCl [methyl 4-chlorobutanoate] + Cc1ccccc1
[1]
Conditions	mass density, 298.15 K [kg/m3]	mass density, 308.15 K [kg/m3]	mass density, 318.15 K [kg/m3]	viscosity, 298.15 K [mPa·s]	viscosity, 308.15 K [mPa·s]	viscosity, 318.15 K [mPa·s]
x1 = 0.1	891.28	881.71	872.09	0.614	0.551	0.486
x1 = 0.2	919.47	909.69	899.87	0.68	0.599	0.53
x1 = 0.3	946.73	936.79	926.77	0.753	0.662	0.582
x1 = 0.4001	973.21	963.07	952.89	0.829	0.731	0.635
x1 = 0.5	998.81	988.49	978.14	0.919	0.796	0.7
x1 = 0.6	1023.69	1013.23	1002.74	1.021	0.883	0.767
x1 = 0.7	1047.84	1037.22	1026.57	1.123	0.962	0.831
x1 = 0.8	1071.31	1060.54	1049.74	1.246	1.062	0.913
x1 = 0.8998	1094.05	1083.16	1072.21	1.38	1.17	1.001
x1 = 1	1116.24	1105.22	1094.13	1.519	1.279	1.089

COC(=O)CCCCl [methyl 4-chlorobutanoate] + Cc1ccccc1C
[1]
Conditions	mass density, 298.15 K [kg/m3]	mass density, 308.15 K [kg/m3]	mass density, 318.15 K [kg/m3]	viscosity, 298.15 K [mPa·s]	viscosity, 308.15 K [mPa·s]	viscosity, 318.15 K [mPa·s]
x1 = 0.1	899.36	890.63	881.84	0.814	0.71	0.627
x1 = 0.2001	923.55	914.54	905.46	0.872	0.757	0.688
x1 = 0.3	947.67	938.39	929.03	0.935	0.808	0.707
x1 = 0.3998	971.75	962.19	952.59	1.001	0.863	0.752
x1 = 0.4992	995.83	985.99	976.14	1.074	0.92	0.8
x1 = 0.6	1020.27	1010.17	1000.07	1.153	0.983	0.855
x1 = 0.7	1044.53	1034.19	1023.83	1.235	1.05	0.907
x1 = 0.8	1068.71	1058.13	1047.53	1.322	1.12	0.965
x1 = 0.9	1092.68	1081.88	1071.02	1.415	1.194	1.025
x1 = 1	1116.24	1105.22	1094.13	1.519	1.279	1.089

COC(=O)CCCCl [methyl 4-chlorobutanoate] + c1ccccc1
[1]
Conditions	mass density, 298.15 K [kg/m3]	mass density, 308.15 K [kg/m3]	mass density, 318.15 K [kg/m3]	viscosity, 298.15 K [mPa·s]	viscosity, 308.15 K [mPa·s]	viscosity, 318.15 K [mPa·s]
x1 = 0.1	905.57	894.74	883.87	0.669	0.579	0.507
x1 = 0.2001	935.29	924.42	913.49	0.731	0.634	0.553
x1 = 0.3	962.99	952.12	941.13	0.799	0.69	0.601
x1 = 0.4001	989.08	978.2	967.18	0.875	0.754	0.661
x1 = 0.5	1013.66	1002.77	991.75	0.96	0.828	0.719
x1 = 0.5999	1036.89	1026.01	1014.99	1.054	0.907	0.785
x1 = 0.7	1058.82	1047.97	1036.94	1.157	0.99	0.853
x1 = 0.8	1079.42	1068.49	1057.55	1.271	1.08	0.927
x1 = 0.9	1098.6	1087.62	1076.65	1.391	1.18	1.007
x1 = 1	1116.24	1105.22	1094.13	1.519	1.279	1.089

Cc1ccccc1 [toluene]
[2]
Conditions	mass density [kg/m3]	viscosity [mPa·s]
298.15 K	862.18	–
308.15 K	852.81	0.499
318.15 K	843.4	0.446

Cc1ccccc1 [toluene] + COC(=O)CCCCl
[1], x2 = 0
Conditions	mass density [kg/m3]	viscosity [mPa·s]
298.15 K	862.18	0.561
308.15 K	852.81	0.499
318.15 K	843.4	0.446
